According to patent publication US9417241B2, “5, 10, 15, 20-tetrakis (carboxyphenyl) porphine (TCPP) and kit for use with detecting cancer” (bioAffinity Technologies, Inc., priority 2000, dated 2016):

Test system: sputum cells (dysplastic, pre-cancerous and cancerous cells)
Assay: Glass slide assay for detection of pre-cancerous and cancerous cells with TCPP (fluorescence microscopy of sputum monolayer slides vs PAP-stain cytomorphology)
Type: cell-based, human

With `O=C(O)c1ccc(-c2c3nc(c(-c4ccc(C(=O)O)cc4)c4ccc([nH]4)c(-c4ccc(C(=O)O)cc4)c4nc(c(-c5ccc(C(=O)O)cc5)c5ccc2[nH]5)C=C4)C=C3)cc1` [TCPP] the “Number of Samples with Cells having Numerical Description by TCPP Fluorescence Microscopy/Number of Samples with Cell Description by Cytmorphology” value (1 = Large nucleus or nuclei, low to medium fluorescence, Adenicarcinoma, squamous cell and small cell carcinoma (n = 10)) was 6/10, the “Number of Samples with Cells having Numerical Description by TCPP Fluorescence Microscopy/Number of Samples with Cell Description by Cytmorphology” value (1 = Large nucleus or nuclei, low to medium fluorescence, Carcinoma in situ (n = 11)) was 10/11 and the “Number of Samples with Cells having Numerical Description by TCPP Fluorescence Microscopy/Number of Samples with Cell Description by Cytmorphology” value (1 = Large nucleus or nuclei, low to medium fluorescence, Mild dysplasia (n = 12)) was 12/12. The “Number of Samples with Cells having Numerical Description by TCPP Fluorescence Microscopy/Number of Samples with Cell Description by Cytmorphology” value (1 = Large nucleus or nuclei, low to medium fluorescence, Moderate dysplasia (n = 9)) was 9/9, the “Number of Samples with Cells having Numerical Description by TCPP Fluorescence Microscopy/Number of Samples with Cell Description by Cytmorphology” value (1 = Large nucleus or nuclei, low to medium fluorescence, Negative or metaplastic (n = 10)) was 3/10 and the “Number of Samples with Cells having Numerical Description by TCPP Fluorescence Microscopy/Number of Samples with Cell Description by Cytmorphology” value (1 = Large nucleus or nuclei, low to medium fluorescence, Severe dysplasia (n = 8)) was 7/8. The “Number of Samples with Cells having Numerical Description by TCPP Fluorescence Microscopy/Number of Samples with Cell Description by Cytmorphology” value (2 = Symmetrical binuclear cells, medium fluorescence, Adenicarcinoma, squamous cell and small cell carcinoma (n = 10)) was 2/10, the “Number of Samples with Cells having Numerical Description by TCPP Fluorescence Microscopy/Number of Samples with Cell Description by Cytmorphology” value (2 = Symmetrical binuclear cells, medium fluorescence, Carcinoma in situ (n = 11)) was 3/11 and the “Number of Samples with Cells having Numerical Description by TCPP Fluorescence Microscopy/Number of Samples with Cell Description by Cytmorphology” value (2 = Symmetrical binuclear cells, medium fluorescence, Mild dysplasia (n = 12)) was 5/12. For the same molecule, the “Number of Samples with Cells having Numerical Description by TCPP Fluorescence Microscopy/Number of Samples with Cell Description by Cytmorphology” value (2 = Symmetrical binuclear cells, medium fluorescence, Moderate dysplasia (n = 9)) was 5/9, the “Number of Samples with Cells having Numerical Description by TCPP Fluorescence Microscopy/Number of Samples with Cell Description by Cytmorphology” value (2 = Symmetrical binuclear cells, medium fluorescence, Negative or metaplastic (n = 10)) was 0/10 and the “Number of Samples with Cells having Numerical Description by TCPP Fluorescence Microscopy/Number of Samples with Cell Description by Cytmorphology” value (2 = Symmetrical binuclear cells, medium fluorescence, Severe dysplasia (n = 8)) was 3/8. The “Number of Samples with Cells having Numerical Description by TCPP Fluorescence Microscopy/Number of Samples with Cell Description by Cytmorphology” value (3 = Small oval cells, medium to high fluorescence, Adenicarcinoma, squamous cell and small cell carcinoma (n = 10)) was 6/10, the “Number of Samples with Cells having Numerical Description by TCPP Fluorescence Microscopy/Number of Samples with Cell Description by Cytmorphology” value (3 = Small oval cells, medium to high fluorescence, Carcinoma in situ (n = 11)) was 6/11 and the “Number of Samples with Cells having Numerical Description by TCPP Fluorescence Microscopy/Number of Samples with Cell Description by Cytmorphology” value (3 = Small oval cells, medium to high fluorescence, Mild dysplasia (n = 12)) was 4/12. The “Number of Samples with Cells having Numerical Description by TCPP Fluorescence Microscopy/Number of Samples with Cell Description by Cytmorphology” value (3 = Small oval cells, medium to high fluorescence, Moderate dysplasia (n = 9)) was 4/9, the “Number of Samples with Cells having Numerical Description by TCPP Fluorescence Microscopy/Number of Samples with Cell Description by Cytmorphology” value (3 = Small oval cells, medium to high fluorescence, Negative or metaplastic (n = 10)) was 0/10 and the “Number of Samples with Cells having Numerical Description by TCPP Fluorescence Microscopy/Number of Samples with Cell Description by Cytmorphology” value (3 = Small oval cells, medium to high fluorescence, Severe dysplasia (n = 8)) was 2/8. For the same molecule, the “Number of Samples with Cells having Numerical Description by TCPP Fluorescence Microscopy/Number of Samples with Cell Description by Cytmorphology” value (4 = Small round cells, low fluorescence, Adenicarcinoma, squamous cell and small cell carcinoma (n = 10)) was 2/10, the “Number of Samples with Cells having Numerical Description by TCPP Fluorescence Microscopy/Number of Samples with Cell Description by Cytmorphology” value (4 = Small round cells, low fluorescence, Carcinoma in situ (n = 11)) was 0/11 and the “Number of Samples with Cells having Numerical Description by TCPP Fluorescence Microscopy/Number of Samples with Cell Description by Cytmorphology” value (4 = Small round cells, low fluorescence, Mild dysplasia (n = 12)) was 0/12. The “Number of Samples with Cells having Numerical Description by TCPP Fluorescence Microscopy/Number of Samples with Cell Description by Cytmorphology” value (4 = Small round cells, low fluorescence, Moderate dysplasia (n = 9)) was 0/9, the “Number of Samples with Cells having Numerical Description by TCPP Fluorescence Microscopy/Number of Samples with Cell Description by Cytmorphology” value (4 = Small round cells, low fluorescence, Negative or metaplastic (n = 10)) was 0/10 and the “Number of Samples with Cells having Numerical Description by TCPP Fluorescence Microscopy/Number of Samples with Cell Description by Cytmorphology” value (4 = Small round cells, low fluorescence, Severe dysplasia (n = 8)) was 0/8. The “Number of Samples with Cells having Numerical Description by TCPP Fluorescence Microscopy/Number of Samples with Cell Description by Cytmorphology” value (5 = Multi-nucleated cells, medium fluorescence, Adenicarcinoma, squamous cell and small cell carcinoma (n = 10)) was 7/10, the “Number of Samples with Cells having Numerical Description by TCPP Fluorescence Microscopy/Number of Samples with Cell Description by Cytmorphology” value (5 = Multi-nucleated cells, medium fluorescence, Carcinoma in situ (n = 11)) was 9/11 and the “Number of Samples with Cells having Numerical Description by TCPP Fluorescence Microscopy/Number of Samples with Cell Description by Cytmorphology” value (5 = Multi-nucleated cells, medium fluorescence, Mild dysplasia (n = 12)) was 0/12. For the same molecule, the “Number of Samples with Cells having Numerical Description by TCPP Fluorescence Microscopy/Number of Samples with Cell Description by Cytmorphology” value (5 = Multi-nucleated cells, medium fluorescence, Moderate dysplasia (n = 9)) was 3/9, the “Number of Samples with Cells having Numerical Description by TCPP Fluorescence Microscopy/Number of Samples with Cell Description by Cytmorphology” value (5 = Multi-nucleated cells, medium fluorescence, Negative or metaplastic (n = 10)) was 0/10 and the “Number of Samples with Cells having Numerical Description by TCPP Fluorescence Microscopy/Number of Samples with Cell Description by Cytmorphology” value (5 = Multi-nucleated cells, medium fluorescence, Severe dysplasia (n = 8)) was 6/8. For the same molecule, the “Number of Samples with Cells having Numerical Description by TCPP Fluorescence Microscopy/Number of Samples with Cell Description by Cytmorphology” value (6 = Irregular anisoid cells, low to medium fluorescence, Adenicarcinoma, squamous cell and small cell carcinoma (n = 10)) was 7/10, the “Number of Samples with Cells having Numerical Description by TCPP Fluorescence Microscopy/Number of Samples with Cell Description by Cytmorphology” value (6 = Irregular anisoid cells, low to medium fluorescence, Carcinoma in situ (n = 11)) was 10/11 and the “Number of Samples with Cells having Numerical Description by TCPP Fluorescence Microscopy/Number of Samples with Cell Description by Cytmorphology” value (6 = Irregular anisoid cells, low to medium fluorescence, Mild dysplasia (n = 12)) was 0/12. The “Number of Samples with Cells having Numerical Description by TCPP Fluorescence Microscopy/Number of Samples with Cell Description by Cytmorphology” value (6 = Irregular anisoid cells, low to medium fluorescence, Moderate dysplasia (n = 9)) was 1/9, the “Number of Samples with Cells having Numerical Description by TCPP Fluorescence Microscopy/Number of Samples with Cell Description by Cytmorphology” value (6 = Irregular anisoid cells, low to medium fluorescence, Negative or metaplastic (n = 10)) was 0/10 and the “Number of Samples with Cells having Numerical Description by TCPP Fluorescence Microscopy/Number of Samples with Cell Description by Cytmorphology” value (6 = Irregular anisoid cells, low to medium fluorescence, Severe dysplasia (n = 8)) was 1/8. The “Number of Samples with Cells having Numerical Description by TCPP Fluorescence Microscopy/Number of Samples with Cell Description by Cytmorphology” value (7 = Cellular clusters, medium to high fluorescence, Adenicarcinoma, squamous cell and small cell carcinoma (n = 10)) was 3/10, the “Number of Samples with Cells having Numerical Description by TCPP Fluorescence Microscopy/Number of Samples with Cell Description by Cytmorphology” value (7 = Cellular clusters, medium to high fluorescence, Carcinoma in situ (n = 11)) was 1/11 and the “Number of Samples with Cells having Numerical Description by TCPP Fluorescence Microscopy/Number of Samples with Cell Description by Cytmorphology” value (7 = Cellular clusters, medium to high fluorescence, Mild dysplasia (n = 12)) was 0/12. The “Number of Samples with Cells having Numerical Description by TCPP Fluorescence Microscopy/Number of Samples with Cell Description by Cytmorphology” value (7 = Cellular clusters, medium to high fluorescence, Moderate dysplasia (n = 9)) was 1/9, the “Number of Samples with Cells having Numerical Description by TCPP Fluorescence Microscopy/Number of Samples with Cell Description by Cytmorphology” value (7 = Cellular clusters, medium to high fluorescence, Negative or metaplastic (n = 10)) was 0/10 and the “Number of Samples with Cells having Numerical Description by TCPP Fluorescence Microscopy/Number of Samples with Cell Description by Cytmorphology” value (7 = Cellular clusters, medium to high fluorescence, Severe dysplasia (n = 8)) was 0/8. The “Number of Samples with Cells having Numerical Description by TCPP Fluorescence Microscopy/Number of Samples with Cell Description by Cytmorphology” value (8 = Degenerated single cells, medium to high fluorescence, Adenicarcinoma, squamous cell and small cell carcinoma (n = 10)) was 7/10, the “Number of Samples with Cells having Numerical Description by TCPP Fluorescence Microscopy/Number of Samples with Cell Description by Cytmorphology” value (8 = Degenerated single cells, medium to high fluorescence, Carcinoma in situ (n = 11)) was 4/11 and the “Number of Samples with Cells having Numerical Description by TCPP Fluorescence Microscopy/Number of Samples with Cell Description by Cytmorphology” value (8 = Degenerated single cells, medium to high fluorescence, Mild dysplasia (n = 12)) was 0/12. For the same molecule, the “Number of Samples with Cells having Numerical Description by TCPP Fluorescence Microscopy/Number of Samples with Cell Description by Cytmorphology” value (8 = Degenerated single cells, medium to high fluorescence, Moderate dysplasia (n = 9)) was 0/9, the “Number of Samples with Cells having Numerical Description by TCPP Fluorescence Microscopy/Number of Samples with Cell Description by Cytmorphology” value (8 = Degenerated single cells, medium to high fluorescence, Negative or metaplastic (n = 10)) was 0/10 and the “Number of Samples with Cells having Numerical Description by TCPP Fluorescence Microscopy/Number of Samples with Cell Description by Cytmorphology” value (8 = Degenerated single cells, medium to high fluorescence, Severe dysplasia (n = 8)) was 0/8. The “Number of Samples with Cells having Numerical Description by TCPP Fluorescence Microscopy/Number of Samples with Cell Description by Cytmorphology” value (9 = Degenerated cell clusters, medium to high fluorescence, Adenicarcinoma, squamous cell and small cell carcinoma (n = 10)) was 4/10, the “Number of Samples with Cells having Numerical Description by TCPP Fluorescence Microscopy/Number of Samples with Cell Description by Cytmorphology” value (9 = Degenerated cell clusters, medium to high fluorescence, Carcinoma in situ (n = 11)) was 1/11 and the “Number of Samples with Cells having Numerical Description by TCPP Fluorescence Microscopy/Number of Samples with Cell Description by Cytmorphology” value (9 = Degenerated cell clusters, medium to high fluorescence, Mild dysplasia (n = 12)) was 0/12. For the same molecule, the “Number of Samples with Cells having Numerical Description by TCPP Fluorescence Microscopy/Number of Samples with Cell Description by Cytmorphology” value (9 = Degenerated cell clusters, medium to high fluorescence, Moderate dysplasia (n = 9)) was 0/9 and the “Number of Samples with Cells having Numerical Description by TCPP Fluorescence Microscopy/Number of Samples with Cell Description by Cytmorphology” value (9 = Degenerated cell clusters, medium to high fluorescence, Negative or metaplastic (n = 10)) was 0/10.
